Laboratory results published in patent US20230159509A1 (Amathus Therapeutics, Inc., priority 2020, published 2023).

Experiments:
Type in all cases: cell-based
[1] = target: T1, nanoLuc TRAP1 in SHSY5Y cells (Homo sapiens, UniProt Q12931); test: NanoBRET in-cell target engagement assay
T1 construct: expressed in transfected cells; host or cells: SHSY5Y cells, transient transfection with FuGENE HD
T1 sequence (Q12931 60-704): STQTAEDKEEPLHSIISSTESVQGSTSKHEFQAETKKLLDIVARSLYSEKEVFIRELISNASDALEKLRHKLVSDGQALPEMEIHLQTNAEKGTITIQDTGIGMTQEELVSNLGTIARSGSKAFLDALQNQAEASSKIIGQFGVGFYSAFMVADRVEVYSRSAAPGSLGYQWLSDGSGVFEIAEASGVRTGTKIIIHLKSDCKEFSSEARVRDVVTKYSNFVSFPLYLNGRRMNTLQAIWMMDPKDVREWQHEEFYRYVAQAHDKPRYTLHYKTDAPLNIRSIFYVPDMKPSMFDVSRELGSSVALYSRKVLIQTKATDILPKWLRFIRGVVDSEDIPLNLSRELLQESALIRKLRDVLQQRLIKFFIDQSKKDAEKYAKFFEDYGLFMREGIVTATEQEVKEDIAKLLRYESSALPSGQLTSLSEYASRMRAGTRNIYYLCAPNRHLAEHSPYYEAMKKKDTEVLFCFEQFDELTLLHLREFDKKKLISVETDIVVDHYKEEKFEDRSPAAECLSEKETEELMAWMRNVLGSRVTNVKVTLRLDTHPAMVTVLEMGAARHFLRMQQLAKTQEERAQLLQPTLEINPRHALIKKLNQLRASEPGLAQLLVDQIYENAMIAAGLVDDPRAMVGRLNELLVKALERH
Experimental: In-cell target engagement assays were performed as described in Robers M. B. et al. (2019) Quantitative, Real-Time Measurements of Intracellular Target Engagement Using Energy Transfer. In: Ziegler S., Waldmann H. (eds) Systems Chemical Biology. Methods in Molecular Biology, vol 1888. Humana Press, New York, N.Y.; Machleidt et al., ACS Chem. Biol. 2015, 10, 8, 1797-1804; or Vasta et al., Cell Chemical Biology 25, 206-214, Feb. 15, 2018; or as described herein.
Below is a protocol for transient transfection of SHSY5Y cells with NanoLuc® fusions. • 1. Cultivate SHSY5Y cells appropriately prior to assay in MEM w NEAA supplemented with 10% FBS. • 2. Remove medium from cell flask via aspiration, trypsinize, and allow cells to dissociate from the flask. • 3. Neutralize trypsin using growth medium and pellet cells via centrifugation at 200 g for 5 minutes. • 4. Aspirate medium and re-suspend cells into a single cell suspension using complete cell culture medium. • 5. Adjust the cell density to 300K/mL in cell culture medium in a sterile, conical tube. • 6. Prepare lipid:DNA complexes as follows (this covers two assay plates, adjust numbers for more plates) • a. Prepare a 10 μg/mL solution of DNA in Opti-MEM without serum. This solution should contain the following ratios of carrier DNA and DNA encoding NanoLuc® fusion. • i. 5.0 μg/mL of Transfection Carrier DNA (pGEM) • ii. […]

α-synuclein = α-synuclein aggregation in human embryonic stem cells overexpressing α-synuclein with an AAV vector; conditions: FIG. 9
[2] = system: primary rat dopaminergic TH-positive neurons; test: ROS production and neurite network in primary rat dopaminergic TH-positive neurons injured with MPP+ or 6-OHDA

## COc1ncc(NC(=O)c2csc(-c3ccccc3)n2)cc1S(=O)(=O)Nc1c(C)cccc1C [compound 1178]
[1]; SHSY5Y cells, tracer titration, compound 20 PM, FIG. 13
  displacement of fluorescent nanoBRET tracer (probe-385) from nanoLuc TRAP1: displacement of the tracer
[1]; live SHSY5Y cells, tracer 1 μM, FIG. 14
  displacement of nanoBRET tracer (probe-385) from nanoLuc TRAP1, concentration response: displacing the nanoBRET tracer molecule
α-synuclein
  α-synuclein aggregation: reduction in α-synuclein aggregation
[2]; injured with MPP+ (4 μM, 24 h), FIG. 4
  neurite network of primary rat TH+ dopaminergic neurons: protection of the neurite network
[2]; injured with MPP+ (4 μM, 48 h), FIG. 5
  neurite network of primary rat TH+ dopaminergic neurons: protection of neurite network
[2]; injury with 6-OHDA (20 μM, 4 h), FIG. 8
  ROS production in primary rat dopaminergic neurons: reduction in ROS
[2]; injury with MPP+ (4 μM, 4 h), FIG. 2
  ROS production in primary rat dopaminergic neurons: reduction of reactive oxygen species (ROS)
[2]; injury with MPP+ (4 μM, 4 h), FIG. 3
  ROS production in rat primary mesencephalic culture: reduction ROS
